The text below walks through data of ChEMBL document CHEMBL5608113, “Targeting of CAF-induced therapy resistance in CRC organoid-stroma co-cultures” (2024).

Type in all cases: functional, Homo sapiens
Holding throughout (details): Homo sapiens, read-out: Cell Viability; for viability at 1 µM: Concentration 1 uM; for viability at 10 µM: Concentration 10 uM

Assay [1] has as its system Colon cancer organoid. In words: Targeting of F14 CAF-induced therapy resistance in O23 CRC organoid-stroma co-culture. Cell viability is reported without Gefitinib.
The subject of assay [2] is Colon cancer organoid. Nature of the assay: Targeting of F14 CAF-induced therapy resistance in O14 CRC organoid-stroma co-culture. Cell viability is reported with Gefitinib.
Assay [3] deals with Colon cancer organoid. Nature of the assay: Targeting of F14 CAF-induced therapy resistance in O23 CRC organoid-stroma co-culture. Cell viability is reported with Gefitinib.
For assay [4], the system named is Colon cancer organoid. In words: Targeting of F14 CAF-induced therapy resistance in O14 CRC organoid-stroma co-culture. Cell viability is reported without Gefitinib.
Assay [5] has as its system Colon cancer organoid. In words: Targeting of F14 CAF-induced therapy resistance in O23 CRC organoid-stroma co-culture. Cell viability is reported with SN-38.

With `CNCc1ccccc1-c1csc([C@H](C)Nc2nc(C)nc3cc(OC)c(OC)cc23)c1` [BAY-294], the viability (commonly a read-out of living cells in per cent, often relative to untreated cells) at 1 µM came to 137% in assay [1]; 66.5% in assay [2]; 46.4% in assay [3]; 102% in assay [4]; 89% in assay [5].
`Cc1cc(NC(=O)c2cccc(S(F)(F)(F)(F)F)c2)cc(-n2ccn3nc(-c4cccnc4)cc23)c1` [BAY-309]: the viability at 10 µM in assay [1] was 159%; in assay [2] it was 49.9%; in assay [3] it was 65%; in assay [4] it was 87.3%; in assay [5] it was 61.2%.
For `O=C(N1CCS(=O)(=O)CC1)N1C[C@H](c2ccc(OC(F)(F)F)cc2)C[C@H](c2nc(C3CC3)no2)C1` [BAY-386], the viability at 10 µM was determined as 120% in assay [1]; 53.2% in assay [2]; 55.9% in assay [3]; 103% in assay [4]; 74.8% in assay [5].
For `O[C@]1(C(F)(F)F)CCCC[C@H]1Nc1ccc(F)cc1` [BAY-390], the viability at 1 µM turned out to be 153% in assay [1]; 34% in assay [2]; 64.2% in assay [3]; 92.1% in assay [4]; 51% in assay [5].
Regarding `Cc1c(N2CCNCC2)nc2ccc(Br)cc2c1C(=O)NC[C@H](CCC(=O)O)c1ccccc1Cl` [BAY-403], the viability at 10 µM in assay [1] is 60.5%; in assay [2], 29.6%; in assay [3], 48%; in assay [4], 85.5%; in assay [5] it was 87.2%.
Regarding `CN(C)c1ncnc(-c2ccc3nc(Nc4cc(CN5CCN(C(=O)CC(F)(F)F)CC5)ccn4)[nH]c3c2)c1Cl` [BAY-440], the viability at 10 µM was 160% in assay [1]; 68.9% in assay [2]; 78.1% in assay [3]; 114% in assay [4]; 92.8% in assay [5].
Consider `Cc1noc([C@H]2C[C@@H](c3ccc(C(F)(F)F)cc3)CN(C(=O)N3CCS(=O)(=O)C3)C2)n1` [BAY-448], for which the viability at 10 µM turned out to be 124% in assay [1]; 49% in assay [2]; 58% in assay [3]; 99.7% in assay [4]; 95.1% in assay [5].
In the case of `CC1=C(C#N)C(c2ccc3[nH]nc(C)c3c2)C(C#N)=C(C)N1` [BAY-474], the viability at 10 µM worked out at 115% in assay [1]; 7.78% in assay [2]; 22.9% in assay [3]; 90.1% in assay [4]; 81.4% in assay [5].
For `Cc1c[nH]c2nccc(Oc3c(F)cc(Nc4cc(Cl)nc(N)n4)cc3F)c12` [BAY-549], the viability at 1 µM in assay [1] stood at 124%; in assay [2], 30.6%; in assay [3] it was 62.9%; in assay [4], 96.4%; in assay [5], 74.7%.
For `Cc1c(NC(=O)c2cc(C(N)=O)nc3cc(F)ccc23)c(C(F)(F)F)nn1Cc1ccc(C(C)(C)C)cc1` [BAY-588] the same measures were 111%, 31.3%, 43.1%, 45.5% and 104%.
`CC(=O)C1=C(C)N(c2cccc(C(F)(F)F)c2)C(=O)N[C@H]1c1ccc(C#N)nc1` [BAY-677]: the viability at 10 µM in assay [1] was 93.5%; in assay [2], 57.5%; in assay [3], 51.7%; in assay [4], 107%; in assay [5] it was 75%.
Regarding `CC(=O)C1=C(C)N(c2cccc(C(F)(F)F)c2)C(=O)N[C@@H]1c1ccc(C#N)nc1` [BAY-678], the viability at 10 µM in assay [1] turned out to be 108%; in assay [2] it was 41.2%; in assay [3], 61.8%; in assay [4], 103%; in assay [5], 75.6%.
For `Cc1nc(C2CCN(C(=O)c3ccc(OC(F)(F)F)cc3N)CC2)c2ncc(N3CCN(C)CC3)cc2n1` [BAY-693] the same measures were 119%, 32.1%, 46.5%, 76.4% and 53.6%.
As for `O=C(O)[C@@H]1[C@@H](Cn2nnc3ccccc3c2=O)CC[C@H]1C(=O)c1ccc(OCCC2CCOCC2)cc1` [BAY-694], the viability at 10 µM in assay [1] was 146%; in assay [2], 56%; in assay [3] it was 53%; in assay [4] it was 102%; in assay [5], 78.7%.
As for `O=C(NCc1ncc(C(F)(F)F)cc1Cl)c1ccc2c(c1)C1(CCS(=O)(=O)CC1)[C@H](C1CC1)N2S(=O)(=O)c1ccc(F)cc1` [BAY-784], the viability at 1 µM was determined as 157% in assay [1]; 55.8% in assay [2]; 74.1% in assay [3]; 129% in assay [4]; 127% in assay [5].
On to `O=C(NCc1ncc(C(F)(F)F)cc1Cl)c1ccc2c(c1)C1(CCS(=O)(=O)CC1)[C@@H](C1CC1)N2S(=O)(=O)c1ccc(F)cc1` [BAY-786], for which the viability at 10 µM in assay [1] was found to be 138%; in assay [2] it was 53%; in assay [3] it was 61.5%; in assay [4] it was 115%; in assay [5] it was 106%.
For the compound `Cc1cc(C)c(-n2ccn3nc(-c4cccnc4)cc23)cc1NC(=O)c1cc(C#N)cc(S(F)(F)(F)(F)F)c1` [BAY-826], the viability at 1 µM in assay [1] came out at 102%; in assay [2], 58.7%; in assay [3], 58.2%; in assay [4], 145%; in assay [5], 64.2%.
For the compound `Cc1c(NC(=O)c2cc(C(N)=O)nc3cc(F)ccc23)c(C(F)(F)F)nn1Cc1ccc(C#N)cc1` [BAY-876], the viability at 10 µM amounted to 43.8% in assay [1]; 5.75% in assay [2]; 15% in assay [3]; 16.3% in assay [4]; 39.6% in assay [5].
Take `CN1CCN(c2cnc3c(C4CCN(C(=O)c5ccc(OC(F)(F)F)cc5N)CC4)ncnc3c2)CC1` [BAY-885]: the viability at 10 µM in assay [1] was 115%; in assay [2] it was 21.7%; in assay [3] it was 59.7%; in assay [4] it was 114%; in assay [5] it was 78%.
Turning to `O=C(Nc1ccc(Oc2ccc(F)cc2)cc1)N1CCc2ncccc2[C@H]1c1ccc(F)cc1` [BAY-897], the viability at 1 µM in assay [1] is 111%; in assay [2], 32.3%; in assay [3], 47.5%; in assay [4] it was 80%; in assay [5] it was 61.9%.
For `O=C(Nc1cnc(Oc2ccc(F)cc2)nc1)N1CCc2ncccc2[C@@H]1c1ccc(F)cc1` [BAY-899], the viability at 10 µM in assay [1] was 223%; in assay [2], 39.4%; in assay [3], 63.6%; in assay [4], 98.8%; in assay [5] it was 59.1%.
Regarding `CC1=C(C#N)C(c2ccc3c(c2)c(NC(=O)c2ccccc2C)nn3C)C(C#N)=C(C)N1` [BAY-974], the viability at 10 µM in assay [1] is 103%; in assay [2], 48.3%; in assay [3] it was 40.1%; in assay [4] it was 109%; in assay [5] it was 57.9%.
With `C[C@H](c1ccnc(Nc2nc3ccc(-c4cc(N(C)C)ncn4)cc3[nH]2)c1)N1CCN(C(=O)CC(F)(F)F)CC1` [BAY-985], the viability at 10 µM is 160% in assay [1]; 77.2% in assay [2]; 84.3% in assay [3]; 163% in assay [4]; 80.5% in assay [5].
As to `NS(=O)(=O)c1cc(NC(=O)Cc2ccccc2)ccc1Oc1cccc(Cl)c1` [BAY-1797], the viability at 10 µM in assay [1] came to 114%; in assay [2] it was 51.7%; in assay [3], 48.6%; in assay [4], 124%; in assay [5] it was 60.6%.
For `CCc1ccccc1C(=O)Nc1n[nH]c2c(C)c(F)c(C3C(C#N)=C(C)N(C)C(C)=C3C#N)cc12` [BAY-3827], the viability at 10 µM in assay [1] is 47.4%; in assay [2] it was 24.2%; in assay [3], 30.6%; in assay [4] it was 101%; in assay [5] it was 14.5%.
On to `Cn1cc(Cl)c2c(Oc3c(F)cc(Nc4cc(Cl)nc(N)n4)cc3F)ccnc21` [BAY-4900], for which the viability at 10 µM was 107% in assay [1]; 30.9% in assay [2]; 40.3% in assay [3]; 85% in assay [4]; 54.4% in assay [5].
For `Cc1c(N2CCCC2)nc2ccc(Br)cc2c1C(=O)NC[C@H](CCC(=O)O)c1ccccc1Cl` [BAY-6672], the viability at 10 µM in assay [1] came out at 81.2%; in assay [2], 37.9%; in assay [3] it was 42.2%; in assay [4], 138%; in assay [5] it was 58.4%.
Regarding `O=C(O)[C@H]1[C@H](Cn2nnc3ccccc3c2=O)CC[C@@H]1C(=O)c1ccc(OCCC2CCOCC2)cc1` [BAY-7598], the viability at 1 µM in assay [1] turned out to be 130%; in assay [2], 48.5%; in assay [3], 41.8%; in assay [4], 122%; in assay [5], 99.1%.
As for `COc1cc(N[C@@H]2CCCC[C@]2(O)C(F)(F)F)ccc1F` [BAY-9897], the viability at 1 µM is 81.6% in assay [1]; 40.2% in assay [2]; 66.7% in assay [3]; 86.4% in assay [4]; 78.5% in assay [5].
Take `NC(=O)c1ccc2nc(-c3ccc(C4(N)CCC4)cc3)c(-c3ccccc3)n2n1` [BAY-1125976]: the viability at 1 µM was found to be 86% in assay [1]; 52.1% in assay [2]; 38% in assay [3]; 152% in assay [4]; 47.7% in assay [5].
